This is an account of results in patent US20110218103A1, “Fluoroalkyl-substituted 2-amidobenzimidazoles” (BAYER CROPSCIENCE AG, priority 2010, published 2011).

One test deals with Hordeum vulgare (HORVS). Kind of test: Drought stress test on crop plants, spray application in greenhouse, visual damage rating. Type of test: in vivo. To be noted: 25 g/ha, mean of three results. The method, then: Seeds of monocotyledonous and dicotyledonous crop plants were placed in sandy loam in wood-fiber pots, covered with soil and cultivated in a greenhouse under good growth conditions. The test plants were treated at the early leaf stage (BBCH10-BBCH13). To ensure uniform water supply before commencement of stress, the potted plants were supplied with the maximum amount of water immediately beforehand by dam irrigation and, after application, transferred in plastic inserts in order to prevent subsequent, excessively rapid drying. The inventive compounds, formulated in the form of wettable powders (WP), wettable granules (WG), suspension concentrates (SC) or emulsion concentrates (EC), were sprayed onto the green parts of the plants as an aqueous suspension at an equivalent water application rate of 600 l/ha with addition of 0.2% wetting agent (agrotin). Substance application was followed immediately by stress treatment of the plants (cold or drought stress). For cold stress treatment, the plants were kept under the following controlled conditions: Drought stress was induced by gradual drying out under the following conditions: “day”: 14 hours with illumination at 26° C. “night”: 10 hours without illumination at 18° C. The duration of the respective stress phases was guided mainly by the state of the untreated, stressed control plants and thus varies from crop to crop. It was ended (by re-irrigating or transfer to a greenhouse with good growth conditions) as soon as irreversible damage is observed on the untreated, stressed control plants. In the case of dicotyledonous crops, for example oilseed rape and soya, the duration of the drought stress phase was between 3 and 5 days, in the case of monocotyledonous crops, for example wheat, barley or corn, between 6 and 10 days. The duration of the cold stress phase varied between 12 and 14 days. The end of the stress phase was followed by an approx. 5-7-day recovery phase, during which the plants were once again kept under good growth conditions in a greenhouse. In order to rule out any influence of the effects observed by any fungicidal action of the test compounds, it was additionally ensured that the tests proceed without fungal infection and without infection pressure. After the recovery phase had ended, the intensities of damage were rated visually compared to untreated, unstressed controls of the same age (in the case of drought stress) or the same growth stage (in the case of cold stress). The intensity of damage was first assessed as a percentage (100%=plants have died, 0%=like control plants). These values were then used to calculate the efficacy of the test compounds (=percentage reduction in the intensity of damage as a result of substance application) by the following formula: [formula] EF: efficacy (%) DVus: damage value of the untreated, stressed control DVts: damage value of the plants treated with test compound The tables below list mean values in each case from three results of the same test. Effects of selected compounds of the formula (I) under drought stress: HORVS=Hordeum vulgare

In test [1] the test system is Triticum aestivum (TRZAS). The description is as above. Type of test: in vivo. Particulars: mean of three results. The method, then: Seeds of monocotyledonous and dicotyledonous crop plants were placed in sandy loam in wood-fiber pots, covered with soil and cultivated in a greenhouse under good growth conditions. The test plants were treated at the early leaf stage (BBCH10-BBCH13). To ensure uniform water supply before commencement of stress, the potted plants were supplied with the maximum amount of water immediately beforehand by dam irrigation and, after application, transferred in plastic inserts in order to prevent subsequent, excessively rapid drying. The inventive compounds, formulated in the form of wettable powders (WP), wettable granules (WG), suspension concentrates (SC) or emulsion concentrates (EC), were sprayed onto the green parts of the plants as an aqueous suspension at an equivalent water application rate of 600 l/ha with addition of 0.2% wetting agent (agrotin). Substance application was followed immediately by stress treatment of the plants (cold or drought stress). For cold stress treatment, the plants were kept under the following controlled conditions: Drought stress was induced by gradual drying out under the following conditions: “day”: 14 hours with illumination at 26° C. “night”: 10 hours without illumination at 18° C. The duration of the respective stress phases was guided mainly by the state of the untreated, stressed control plants and thus varies from crop to crop. It was ended (by re-irrigating or transfer to a greenhouse with good growth conditions) as soon as irreversible damage is observed on the untreated, stressed control plants. In the case of dicotyledonous crops, for example oilseed rape and soya, the duration of the drought stress phase was between 3 and 5 days, in the case of monocotyledonous crops, for example wheat, barley or corn, between 6 and 10 days. The duration of the cold stress phase varied between 12 and 14 days. The end of the stress phase was followed by an approx. 5-7-day recovery phase, during which the plants were once again kept under good growth conditions in a greenhouse. In order to rule out any influence of the effects observed by any fungicidal action of the test compounds, it was additionally ensured that the tests proceed without fungal infection and without infection pressure. After the recovery phase had ended, the intensities of damage were rated visually compared to untreated, unstressed controls of the same age (in the case of drought stress) or the same growth stage (in the case of cold stress). The intensity of damage was first assessed as a percentage (100%=plants have died, 0%=like control plants). These values were then used to calculate the efficacy of the test compounds (=percentage reduction in the intensity of damage as a result of substance application) by the following formula: [formula] EF: efficacy (%) DVus: damage value of the untreated, stressed control DVts: damage value of the plants treated with test compound The tables below list mean values in each case from three results of the same test. Effects of selected compounds of the formula (I) under drought stress: TRZAS=Triticum aestivum

The structures appear in SMILES notation. A value given as a limit tells only on which side of the number the result lay.

On to `NC(=O)c1cccc2[nH]c(C(F)(F)C(F)(F)F)nc12` [1-2, 2-(pentafluoroethyl)-1H-benzimidazole-4-carboxamide], for which the “EF (HORVS), efficacy = percentage reduction in the intensity of damage” value in the test on Hordeum vulgare (HORVS) is over 5%. Also, in test [1] (25 g/ha), the “EF (TRZAS), efficacy = percentage reduction in the intensity of damage” value is over 5%.
For `NC(=O)c1cccc2[nH]c(C(F)(F)C(F)(F)C(F)(F)F)nc12` [1-17], the “EF (HORVS), efficacy = percentage reduction in the intensity of damage” value in the test on Hordeum vulgare (HORVS) is over 5%. The “EF (TRZAS), efficacy = percentage reduction in the intensity of damage” value in test [1] (250 g/ha) is over 5%.
